Data: patent publication US12383498B2, “Amlodipine formulations” (Azurity Pharmaceuticals, Inc., priority 2018, dated 2025)

Columns and labels:
[1] = Amlodipine content in supernatant of amlodipine salt batches (0.45 micron filtration, HPLC); format: physicochemical; details: batches prepared by mixing; ~10-fold molar salt forming agent; polysorbate 80 in water
Protocol: Amlodipine salts were prepared according to the formulas in Table 1 and Table 2. The formulations in Table 1 were prepared by adding purified water to a glass container containing a magnetic stir-bar and mixing with an external magnetic stir-plate. The polysorbate 80 was added and allowed to dissolve with mixing for a minimum of 10 minutes. Amlodipine besylate was then added and dispersed in the solution with mixing for a minimum of 10 minutes. The salt forming agent was then added to the suspension and the resulting suspension was mixed for an additional 30 minutes. The amount of the added salt forming agent was approximately 10-fold the amount of amlodipine on a mole basis. A control formulation was prepared to provide a solubility value for amlodipine besylate.
The formulations in Table 2 were prepared by adding purified water to a glass container positioned in an ultrasonic bath. Mixing was initiated with an overhead mixer and impeller. The polysorbate 80 was added and allowed to dissolve with mixing for a minimum of 10 minutes. Amlodipine besylate was then added and dispersed in the solution with mixing for a minimum of 10 minutes. […]
An aliquot of each suspension was filtered through a 0.45 micron nylon filter and the supernatant analyzed by an HPLC method for amlodipine content. […] Detection was by UV absorbance at 237 nm.

[2] = Soluble amlodipine in isolated solids (purified water, pH 5.3, tumbled 66 hours, HPLC); format: physicochemical; details: pH 5.3, aqueous buffer, thermodynamic from solid
Protocol: Batches 1A-1F had different amlodipine content in the supernatants than the amlodipine besylate control indicating formation of new salt forms. […] Aliquots of each solid were weighed into 15 mL polypropylene centrifuge tubes in duplicate except for batch 1A which was a single determination. Purified water was added to each tube and the pH of the resulting suspension adjusted to 5.3 with anhydrous citric acid or anhydrous sodium citrate powder as needed. A control was also prepared in duplicate containing only purified water and amlodipine besylate at pH 5.3. The tubes were capped, covered in foil to block light, and allowed to tumble end-over-end at ambient temperature for 66 hours. The suspensions were then filtered through 0.45 micron nylon filters and the resulting filtrates analyzed by HPLC for amlodipine content.

- Amlodipine content in supernatant [1]: 4.80 mg/mL
- solubility at 66 h ([2]; Tube 1, pH adjusted to 5.3, ambient temperature): 1080 µg/mL
- solubility at 66 h ([2]; Tube 2, pH adjusted to 5.3, ambient temperature): 1080 µg/mL
SMILES: CCOC(=O)C1=C(COCCN)NC(C)=C(C(=O)OC)C1c1ccccc1Cl (stereo not drawn) [Control, Amlodipine besylate]
